{"source": "patent US20220313782A1", "about": "“METHODS AND COMPOSITIONS INVOLVING TERT ACTIVATING THERAPIES” (BOARD OF REGENTS, THE UNIVERSITY OF TEXAS SYSTEM, priority 2019, published 2022)", "key": {"Tert gene expression": {"tested_on": "Tert gene expression", "assay": "Tert mRNA levels in cortex and hippocampus of AD mice treated with histone methyltransferase inhibitors", "type": "in vivo, mouse", "details": "cortex and hippocampus of AD mice (5xFAD), FIG. 1I", "excerpt": "Tert mRNA levels in the cortex of 3xTg-AD and wildtype control (B6129SF2/J) mice (n=4; 3-month-old). (B) Tert mRNA levels in the hippocampus of 5xFAD and wildtype littermate control mice (n=4; 2˜3-month-old). (C) Tert mRNA levels in primary cortical and hippocampal neurons isolated from 3xTg-AD and control mice at DIV 14 (n=3). (D) Tert mRNA levels in primary cortical and hippocampal neurons isolated from 5xFAD and control mice at DIV 14 (n=3). (E) Telomerase activity in hippocampal neurons isolated from 5xFAD and control mice (n=4; 2˜3-month-old). (F) Representative view of H3K9me3 repressive histone mark occupancy in Tert gene of 5xFAD and control mouse primary neurons at DIV 14. […]\nFocusing in particular on the neuronal population, the inventors isolated and cultured primary cortical and hippocampal neurons from E18.5-E19.5 AD mouse brains, and Tert mRNA levels were examined at 14 Days in vitro (DIV), by which time the synaptic network is mature. […] To investigate whether reversible H3K9 methylation is involved in the repression of Tert, the inventors assessed the impact of histone methyltransferase inhibitors chaetocin and BIX-01294, the non-selective cofactor-competitive inhibitor and the selective substrate-competitive inhibitor, respectively, in the AD mouse model (Greiner et al., Nat Chem Biol, 2005; Kubicek et al., Mol Cell, 2007; Yuan et al., ACS Chem Biol, 2012). […]"}, "H3K9 methylation marks": {"tested_on": "H3K9 methylation marks", "details": "peripheral administration; cited from earlier work"}}}
{"smiles": "COc1cc2nc(N3CCCN(C)CC3)nc(NC3CCN(Cc4ccccc4)CC3)c2cc1OC", "note": "[BIX-01294]", "values": [{"measurement": "Tert gene expression (Tert mRNA levels)", "setting": "Tert gene expression", "result": "de-repression of Tert gene expression"}, {"measurement": "H3K9 methylation marks in the central nervous system", "setting": "H3K9 methylation marks", "result": "reduce H3K9 methylation marks"}]}
